The text below walks through data of ChEMBL document CHEMBL5528004, “Development of a new class of potent and highly selective G protein-coupled receptor kinase 5 inhibitors and structural insight from crystal structures of inhibitor complexes” (Eur J Med Chem, 2024).

The target in assay [1] is T1, Beta-adrenergic receptor kinase 1 (Bos taurus, UniProt P21146).
T1 sequence (P21146 whole entry): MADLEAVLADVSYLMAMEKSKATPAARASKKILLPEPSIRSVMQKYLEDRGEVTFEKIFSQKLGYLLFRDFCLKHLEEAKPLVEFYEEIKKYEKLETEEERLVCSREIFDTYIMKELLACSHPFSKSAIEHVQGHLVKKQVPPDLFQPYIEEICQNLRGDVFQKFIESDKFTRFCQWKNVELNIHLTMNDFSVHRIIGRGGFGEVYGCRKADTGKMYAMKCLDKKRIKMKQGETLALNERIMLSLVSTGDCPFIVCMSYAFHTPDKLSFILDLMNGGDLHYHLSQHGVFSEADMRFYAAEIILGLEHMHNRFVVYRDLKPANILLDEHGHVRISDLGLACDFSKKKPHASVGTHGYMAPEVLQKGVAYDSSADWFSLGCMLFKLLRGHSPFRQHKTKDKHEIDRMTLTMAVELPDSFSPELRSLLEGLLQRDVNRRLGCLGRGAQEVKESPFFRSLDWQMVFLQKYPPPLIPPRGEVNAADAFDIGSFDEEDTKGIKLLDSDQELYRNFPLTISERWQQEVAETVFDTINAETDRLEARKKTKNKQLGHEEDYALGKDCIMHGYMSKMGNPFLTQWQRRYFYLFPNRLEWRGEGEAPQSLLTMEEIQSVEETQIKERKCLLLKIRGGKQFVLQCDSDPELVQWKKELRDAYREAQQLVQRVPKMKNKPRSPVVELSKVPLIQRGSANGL
The assay is described as follows: Inhibition of bovine GRK2 expressed in baculovirus infected insect cell using tubulin as substrate incubated for 5 mins in presence of [gamma-32P]-ATP by radiometric assay.

Assay [2] concerns the target G protein-coupled receptor kinase 5 (Homo sapiens, UniProt P34947). As to the kind of experiment: Inhibition of human GRK5 (1 to 590) expressed in Escherichia coli using tubulin as substrate incubated for 5 mins in presence of [gamma-32P]-ATP by radiometric assay.
Assay [3] is described as follows: Selectivity index, ratio of IC50 for inhibition of bovine GRK2 to IC50 for inhibition of human GRK5.

Sequence of G protein-coupled receptor kinase 5 (P34947 whole entry): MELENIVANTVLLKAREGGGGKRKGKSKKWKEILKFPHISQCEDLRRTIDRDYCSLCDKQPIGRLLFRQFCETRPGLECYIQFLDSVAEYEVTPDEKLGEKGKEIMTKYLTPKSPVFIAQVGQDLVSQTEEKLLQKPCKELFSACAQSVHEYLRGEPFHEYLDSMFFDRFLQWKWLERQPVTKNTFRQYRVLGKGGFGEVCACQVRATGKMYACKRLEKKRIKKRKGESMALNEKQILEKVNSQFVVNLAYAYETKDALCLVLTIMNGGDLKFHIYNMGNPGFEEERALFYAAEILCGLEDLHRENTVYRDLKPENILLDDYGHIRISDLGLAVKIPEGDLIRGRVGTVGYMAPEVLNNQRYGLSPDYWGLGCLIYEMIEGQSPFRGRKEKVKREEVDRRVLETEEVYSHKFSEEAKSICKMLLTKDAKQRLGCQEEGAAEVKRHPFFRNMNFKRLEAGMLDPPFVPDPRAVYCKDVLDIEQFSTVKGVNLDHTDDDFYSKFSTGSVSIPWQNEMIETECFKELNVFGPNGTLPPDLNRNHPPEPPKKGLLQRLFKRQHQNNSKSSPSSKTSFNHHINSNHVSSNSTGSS

Broadly, the IC50 is the concentration at which inhibition is half-maximal. On to `Cc1[nH]c(/C=C2\C(=O)Nc3ccc(C(=O)NCc4ccc(F)cc4)cc32)c(C)c1NC(=O)[C@@H](O)c1ccco1`, for which, in assay [1], the half-maximal inhibitory concentration (IC50) is 2.2 µM. Still for that read-out and setting: under `Cc1[nH]c(/C=C2\C(=O)Nc3ccc(C(=O)N[C@H](C)c4ccc(F)cc4)cc32)c(C)c1NC(=O)C(=O)c1ccco1` stands above 1000 µM; under `Cc1[nH]c(/C=C2\C(=O)Nc3ccc(C(=O)NCc4ccc(F)cc4)cc32)c(C)c1NC(=O)[C@H](O)c1ccccc1`, 30 µM; under `Cc1[nH]c(/C=C2\C(=O)Nc3ccc(C(=O)N[C@H](C)c4ccc(F)cc4)cc32)c(C)c1NC(=O)[C@@H](O)c1ccccc1`, 90 µM.

Turning to `Cc1[nH]c(/C=C2\C(=O)Nc3ccc(C(=O)N[C@H](C)c4ccc(F)cc4)cc32)c(C)c1NC(=O)[C@H](C)O`, the half-maximal inhibitory concentration (IC50) in assay [1] turned out to be 100 µM.

For the molecule `Cc1[nH]c(/C=C2\C(=O)Nc3ccc(C(=O)N[C@H](C)c4ccc(F)cc4)cc32)c(C)c1NC(=O)[C@@H](C)O`, the concentration for half-maximal inhibition (IC50) in assay [1] was determined as 600 µM. For the molecule `CC(=O)C(=O)Nc1c(C)[nH]c(/C=C2\C(=O)Nc3ccc(C(=O)N[C@H](C)c4ccc(F)cc4)cc32)c1C`, the IC50 in assay [1] turned out to be 200 µM. As to `Cc1[nH]c(/C=C2\C(=O)Nc3ccc(C(=O)N[C@H](C)c4ccc(F)cc4)cc32)c(C)c1NC(=O)C(=O)c1ccccc1`, the concentration for half-maximal inhibition (IC50) is 1100 nM in assay [2] and above 1000 µM in assay [1]. Further, the Ratio IC50 in assay [3] was 900.
